Results reported in patent US8911725B2, “Co-targeting of aurora A kinase and LIM kinase 1 for cancer therapy” (University of Central Florida Research Foundation, Inc., priority 2010, dated 2014).

Assays:
Type in all cases: cell-based
PC3 and RWPE1 cells [1] = assay: Immunofluorescence analysis of cells treated with MLN8237; conditions: MLN8237 0.01 uM, 24 hr
PC3 cells [2] = assay: Western blot analysis of nuclear extracts for phospho-Histone H3; conditions: MLN8237 0.01 uM, nuclear extracts from PC3 cells
Protocol: (§1) FIG. 8. […] Western blot analysis of nuclear extracts from PC3 cells treated with MLN8237 (0.01 uM). Y-tubulin staining was used as the loading control. […] PC3 and RWPE1 cells were treated with MLN8237 (0.01 uM) MLN8237 for 24, 48, and 72 hr and cell viability was measured by MTT Assay.

PC3 and RWPE1 cells [3] = assay: Cell viability by MTT assay; conditions: MLN8237 0.01 uM, 24, 48 and 72 hr
Protocol: as §1

PC3 cells [4] = assay: Cell proliferation by MTS assay, MLN8237 with LIMK1 shRNA or control shRNA
Protocol: 10 cm dishes were transiently transfected with 6 ug of LIMK1 shRNA or control shRNA. 24 hrs post transfection, untransfected PC3 cells along with the transfected PC3 cells were seeded in 96 well plates in triplicate (5,000 cells/well). 14 hrs after seeding, media was changed to MLN8237 containing media, at concentrations of 0.001 uM, 0.01 uM, and 0.1 uM. After 24 and 48 hours of inhibitor treatment, cell proliferation was measured using MTS assay. MTS reagent was added to each well and allowed to incubate for 3 hrs at 37° C. before reading absorbances. Absorbances were compared against controls.

PC3 cells [5] = assay: Western blot of LIMK1 and pAurKA after LIMK1 shRNA transfection; conditions: LIMK1 shRNA versus control shRNA
Protocol: FIG. 6 PC3 cells were transfected with LIMK1 shRNA or control shRNA and the levels of LIMK1 and pAurKA were detected by western blotting using anti-LIMK1 or anti phospho-AurKA antibodies. GAPDH was used as the loading control. The ratio of pAurKA to GAPDH levels was determined by densitometry (left panel).

PC3 cells [6] = assay: Immunofluorescence of spindle structure after LIMK1 shRNA transfection, spindle abnormalities counted
Text: FIG. 7 A: PC3 cells were transfected with either LIMK1 or control shRNA. In control shRNA transfected cells, distinct localization of pAurKA (green) at the spindle poles (red) could be noted. […] PC3 cells were transfected with either LIMK1 or control shRNA and spindle abnormalities were quantified by counting 50 cells per treatment.

Row | Molecule | localization of pAurKA and spindle morphology (alpha-tubulin) (PC3 and RWPE1 cells [1]) | localization of pLIMK1 and centrin (PC3 and RWPE1 cells [1]) | levels of phospho-Histone H3 (mitotic arrest) (PC3 cells [2]) | cell survival (cell viability, MTT) (PC3 and RWPE1 cells [3]) | sensitivity of untransfected PC3 cells to MLN8237 (MTS) (PC3 cells [4]; 0.001, 0.01 and 0.1 uM, 24 and 48 hr) | number of viable cells compared to control shRNA (PC3 cells [4]; 0.001 uM MLN8237, 48 hrs, PC3 cells) [%] | number of viable cells compared to control shRNA (PC3 cells [4]; 0.1 uM MLN8237, 48 hrs, PC3 cells) [%] | sensitivity to MLN8237 versus control shRNA transfected cells (PC3 cells [4]; PC3 cells, MLN8237 0.001-0.1 uM) | sensitivity to AurKA inhibitor versus untransfected PC3 cells treated only with AurKA inhibitor (PC3 cells [4]; normalised to untransfected PC3 cells treated with vehicle (DMSO), 24 and 48 hr) | level of phosphorylated AurKA (PC3 cells [5]) | number of abnormal spindles (PC3 cells [6]; 50 cells counted per treatment) | spindle structure (alpha-tubulin staining) (PC3 cells [6]; LIMK1 shRNA versus control shRNA)
1 | COc1cc(Nc2ncc3c(n2)-c2ccc(Cl)cc2C(c2c(F)cccc2OC)=NC3)ccc1C(=O)O [MLN8237] | mislocalization of pAurKA (green) and improper spindle morphology | diffused staining and mislocalization of pLIMK1 (green) and centrin (red) in the nucleus | Increased the Levels of phospho-Histone H3 | Decreased Cell Survival | most sensitive to 0.1 uM MLN8237 at 48 hrs | – | – | – | – | – | – | –
2 | AAGGACAAGAGGCTCAACTTCATCACTGA (listed as DNA, chemistry not given here) [LIMK1 shRNA, interfering RNA (shRNA) targeting LIMK1] | – | – | – | – | – | 75 | 83 | more sensitivity to MLN8237 | increased the sensitivity of the cells to AurKA inhibitor at all concentrations | decreased the level of phosphorylated AurkA | increased the number of abnormal spindles | disorganized spindle structure
